Measured values published in BindingDB's records for doi:10.1021/jm00121a012 (Takeda Chemical Industries, 1989).

target: Platelet-activating factor receptor (Oryctolagus cuniculus); assay: Inhibition of rabbit platelet aggregation induced by platelet activating factor (PAF)

| SMILES | IC50 [µM] |
| --- | --- |
| CCCCCCCCCCCCCCCCCCNC(=O)OCC(COC(=O)N(C)CC[N+](C)(C)C)OC (stereo not drawn) | 8.2 |
| CCCCCCCCCCCCCCCCCCNC(=O)OCC(COC(=O)N(CC[N+]1(C)CCOCC1)C(C)=O)OC (stereo not drawn) | 9.2 |
| CCCCCCCCCCCCCCCCCCNC(=O)OCC(COC(=O)N(CC[N+](C)(C)C)C(=O)N1CCCC1)OC (stereo not drawn) | 8.6 |
| CCCCCCCCCCCCCCCCCCNC(=O)OCC(COC(=O)N(CC[N+](C)(C)C)C(=O)OC)OC (stereo not drawn) | 2.3 |
| CCCCCCCCCCCCCCCCCCNC(=O)OCC(COC(=O)NCC[N+](C)(C)C)OC (stereo not drawn) | 14 |
| CCCCCCCCCCCCCCCCCCNC(=O)OCC(COC(=O)N(CC[N+](C)(C)C)C(=O)CC)OC (stereo not drawn) | 5.6 |
| CCCCCCCCCCCCCCCCCCNC(=O)OCC(COC(=O)N(Cc1csc[n+]1C)C(C)=O)OC (stereo not drawn) | 0.1 |
| CCCCCCCCCCCCCCCCCCNC(=O)OCC(COC(=O)N(Cc1cccc[n+]1C)C(C)=O)OC (stereo not drawn) | 0.2 |
| CCCCCCCCCCCCCCCCCCNC(=O)OCC(COC(=O)N(CC[N+](C)(C)C)C(=O)N(C)C)OC (stereo not drawn) | 5.8 |
| CCCCCCCCCCCCCCCCCCNC(=O)OCC(COC(=O)N(Cc1csc[n+]1CC)C(C)=O)OC (stereo not drawn) | 0.092 |
| CCCCCCCCCCCCCCCCCCOCC(COC(=O)NCC[N+](C)(C)C)OC(C)=O (stereo not drawn) | 8.4 |
| CCCCCCCCCCCCCCCCCCNC(=O)OCC(COC(=O)N(CC[N+](C)(C)C)C(=O)NCCC)OC (stereo not drawn) | > 30 |
| CCCCCCCCCCCCCCCCCCNC(=O)OCC(COC(=O)N(Cc1cccc[n+]1CCC)C(C)=O)OC (stereo not drawn) | 0.094 |
| CCCCCCCCCCCCCCCCCCNC(=O)OCC(COC(=O)N(CC[N+](C)(C)C)C(=O)CCC)OC (stereo not drawn) | 7.8 |
| CCCCCCCCCCCCCCCCCCOCC(COC(=O)N(CC[N+](C)(C)C)C(C)=O)OC(C)=O (stereo not drawn) | 0.88 |
| CCCCCCCCCCCCCCCCCCNC(=O)OCC(COC(=O)N(CC[N+](C)(C)C)C(C)=O)OC (stereo not drawn) | 1.5 |
| CCCCCCCCCCCCCCCCCCNC(=O)OCC(COC(=O)N(CC[N+]1(C)CCCC1)C(C)=O)OC (stereo not drawn) | 1.1 |
| CCCCCCCCCCCCCCCCCCNC(=O)OCC(COC(=O)N(CCC[N+](C)(C)C)C(C)=O)OC (stereo not drawn) | 8.5 |
